Experimental data taken from publication PMC6690791 (Bioorganic & medicinal chemistry letters, 2019).
Read-outs that look alike come from different tables or passages of the source.

Tests used:
Type in all cases: biochemical
[1] = molecular target: HCV genotype 1b NS3/4A protease (Hepatitis C virus genotype 1b, UniProt P26663); test: fluorescence-based enzymatic assay, genotype 1b NS3/4A
[2] = molecular target: HCV genotype 3a NS3/4A protease (Hepatitis C virus genotype 3a, UniProt Q81258); test: enzymatic inhibition assay, genotype 3a NS3/4A
[3] = molecular target: R155K NS3/4A genotype 1b (Hepatitis C virus genotype 1b, UniProt P26663, R1181K); test: enzymatic inhibition assay, drug-resistant mutant R155K of genotype 1b
[4] = molecular target: V36M NS3/4A genotype 1b (Hepatitis C virus genotype 1b, UniProt P26663, V1062M); test: enzymatic inhibition assay, drug-resistant mutant V36M of genotype 1b
[5] = molecular target: A156S NS3/4A genotype 1b (Hepatitis C virus genotype 1b, UniProt P26663, A1182S); test: enzymatic inhibition assay, drug-resistant mutant A156S of genotype 1b

| SMILES | IC50 [1] [µM] | inhibitory activity (IC50) [3] | other results |
| --- | --- | --- | --- |
| Cc1ccc(S(=O)(=O)Nc2ccccc2C(=O)Nc2nc3ccc4ccccc4c3s2)cc1 [F0325–0092] | 2 to 5 | – | – |
| CSc1cccc2sc(NC(=O)c3ccccc3NS(=O)(=O)c3ccc(C)cc3)nc12 [F2730–0247] | 10 to 100 | – | – |
| Cc1cc(NC(=O)Cc2csc(NS(=O)(=O)c3ccccc3)n2)ccc1Br [F2322–0885] | – | – | IC50 ([2]; genotype 3a NS3/4A): did not have any effect |
| Cc1c(Cl)cccc1NC(=O)Cc1csc(NS(=O)(=O)c2ccccc2)n1 [F2322–0877] | 5 to 10 | – | – |
| Cc1ccc(S(=O)(=O)Nc2ccccc2C(=O)Nc2nc3c(C)cc(C)cc3s2)cc1 [F0325–0086] | 2 to 5 | – | – |
| Cc1ccc(S(=O)(=O)Nc2ccccc2C(=O)Nc2nc(-c3cc(Cl)ccc3Cl)cs2)cc1 [F0325–0125] | < 2 | did not retain activity | – |
| CSc1cccc(NC(=O)Cc2csc(NS(=O)(=O)c3ccccc3)n2)c1 [F2322–0904] | 5 to 10 | – | – |
| Cc1ccc(S(=O)(=O)Nc2ccccc2C(=O)Nc2nc3ccc4sc(C)nc4c3s2)cc1 [F0725–0019] | 2 to 5 | – | – |
| Cc1ccc(S(=O)(=O)Nc2ccccc2C(=O)Nc2nc3c(ccc4ccccc43)s2)cc1 [F0325–0093] | 5 to 10 | – | – |
| Cc1ccc(S(=O)(=O)Nc2ccccc2C(=O)Nc2nc3c(cc4c5c(cccc53)CC4)s2)cc1 [F0816–0111] | 2 to 5 | did not retain activity | – |
| Cc1ccc(S(=O)(=O)Nc2ccccc2C(=O)Nc2nc3c(Br)cccc3s2)cc1 [F1822–0567] | 10 to 100 | – | – |
| Cc1ccc(S(=O)(=O)Nc2ccccc2C(=O)Nc2nc3c(C)ccc(Cl)c3s2)cc1 [F1813–0711] | 5 to 10 | did not retain activity | – |
| Cc1ccc(S(=O)(=O)Nc2ccccc2C(=O)Nc2nc3c(Cl)ccc(Cl)c3s2)cc1 [F1813–0710] | < 2 | maintains its activities | IC50 [2]: 14 µM; inhibitory activity (IC50) [4]: maintains its activities; inhibitory activity (IC50) [5]: maintains its activities |
